Measured values reported in ChEMBL document CHEMBL4765250, “Discovery of hydrazone containing thiadiazoles as Mycobacterium tuberculosis growth and enoyl acyl carrier protein reductase (InhA) inhibitors” (Eur J Med Chem, 2020).
In brackets after ≈: the same amount, converted by molar mass.

What was measured:
[1] = Cytotoxicity against mouse RAW264.7 cells assessed as decrease cell viability at 50 ug/ml measured after 48 hrs by MTT assay; type: cell-based; settings: at 50 µg/mL, read-out: INH
[2] = tested on: Mycobacterium tuberculosis; test: Antitubercular activity against Mycobacterium tuberculosis H37Rv measured after 7 days by MABA method; type: functional; settings: 168 h, time 7 day
[3] = target: T1, Enoyl-[acyl-carrier-protein] reductase [NADH] (Mycobacterium tuberculosis) (UniProt P9WGR1); test: Inhibition of wild type InhA in Mycobacterium tuberculosis H37Rv using trans-2-dodecenoyl-coenzyme A as substrate at 5 uM
T1 sequence (whole entry): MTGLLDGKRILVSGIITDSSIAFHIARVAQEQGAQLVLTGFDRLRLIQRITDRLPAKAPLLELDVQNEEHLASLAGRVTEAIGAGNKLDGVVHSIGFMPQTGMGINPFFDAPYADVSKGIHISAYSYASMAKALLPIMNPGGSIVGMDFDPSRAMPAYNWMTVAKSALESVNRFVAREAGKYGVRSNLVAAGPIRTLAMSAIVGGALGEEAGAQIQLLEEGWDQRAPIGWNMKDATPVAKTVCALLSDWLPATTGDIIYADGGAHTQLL

[4] = tested on: Mycobacterium tuberculosis; test: Antitubercular activity at Mycobacterium tuberculosis H37Rv in nutrition starved condition medium assessed as log reduction of cell growth at 10 ug/ml measured after 7 days by MPN method; type: functional; settings: dose 10 µg/ml; time 7 day
[5] = Solubility of compound in aqueous buffer at pH 6.8; type: physicochemical

| SMILES | cytotoxicity at 48 h, 50 ug/ml [1] [%] | MIC [2] [µM] | inhibition [3] [%] | FC [4] | solubility [5] |
| --- | --- | --- | --- | --- | --- |
| Cc1ccc(/C=N/Nc2nsc(Nc3ccc(C(F)(F)F)cc3)n2)cc1 | 29.1 | 16.6 (≈ 6.26 µg/mL) | 35 |  |  |
| Cc1ccc(/C=N/Nc2nsc(Nc3ccc(Cl)cc3Cl)n2)cc1 | 33.1 | 8.27 (≈ 3.13 µg/mL) | 48 |  |  |
| C(=N\Nc1nsc(Nc2ccccc2)n1)/c1ccccc1 |  | > 84.8 |  |  |  |
| NNC(=O)c1ccncc1 [ISONIAZID] |  | 0.36 (≈ 0.0494 µg/mL) |  | 1.4 |  |
| COc1ccc(Nc2nc(N/N=C/c3ccccc3)ns2)cc1 | 24.6 | 2.4 (≈ 0.781 µg/mL) |  | 2.2 |  |
| O=[N+]([O-])c1ccc(Nc2nc(N/N=C/c3ccccc3)ns2)cc1 |  | 73.5 (≈ 25 µg/mL) |  |  |  |
| Cc1ccc(/C=N/Nc2nsc(Nc3ccc(Br)cc3)n2)cc1 |  | > 64.4 |  |  |  |
| Cc1ccc(Nc2nc(N/N=C/c3ccccc3)ns2)cc1 | 31.5 | 2.52 (≈ 0.78 µg/mL) | 48 | 2.4 |  |
| Cc1ccc(/C=N/Nc2nsc(Nc3ccc(C)cc3)n2)cc1 |  | > 77.4 |  |  |  |
| Fc1ccc(Nc2nc(N/N=C/c3ccccc3)ns2)cc1 |  | > 79.9 |  |  |  |
| COc1ccc(Nc2nc(N/N=C/c3ccc(C)cc3)ns2)cc1 |  | > 73.8 |  |  |  |
| Cc1ccc(/C=N/Nc2nsc(Nc3ccc(F)cc3)n2)cc1 |  | > 76.5 | 26 |  |  |
| Brc1ccc(Nc2nc(N/N=C/c3ccccc3)ns2)cc1 | 25.8 | 4.17 (≈ 1.56 µg/mL) | 39 |  |  |
| Ic1ccc(Nc2nc(N/N=C/c3ccccc3)ns2)cc1 |  | 59.4 (≈ 25 µg/mL) |  |  | Insoluble |
| FC(F)(F)c1ccc(Nc2nc(N/N=C/c3ccccc3)ns2)cc1 |  | 34.4 (≈ 12.5 µg/mL) |  |  |  |
| Cc1ccc(/C=N/Nc2nsc(Nc3ccc(I)cc3)n2)cc1 | 21.1 | 3.59 (≈ 1.56 µg/mL) |  |  |  |
| Clc1ccc(Nc2nc(N/N=C/c3ccccc3)ns2)c(Cl)c1 |  | 4.29 (≈ 1.56 µg/mL) |  |  |  |
| CC[C@@H](CO)NCCN[C@@H](CC)CO [ETHAMBUTOL] |  | 7.6 (≈ 1.55 µg/mL) |  |  |  |
| Cc1ccc(/C=N/Nc2nsc(Nc3ccc([N+](=O)[O-])cc3)n2)cc1 |  | > 70.6 |  |  |  |
| Cc1ccc(/C=N/Nc2nsc(Nc3ccccc3)n2)cc1 |  | > 80.9 |  |  |  |
| CO[C@H]1/C=C/O[C@@]2(C)Oc3c(C)c(O)c4c(O)c(c(/C=N/N5CCN(C)CC5)c(O)c4c3C2=O)NC(=O)/C(C)=C\C=C\[C@H](C)[C@H](O)[C@@H](C)[C@@H](O)[C@@H](C)[C@H](OC(C)=O)[C@@H]1C [RIFAMPIN] |  | 0.12 (≈ 0.0988 µg/mL) |  | 1.6 |  |
